# According to US11464763B2, “Parasiticidal compositions comprising an isoxazoline active agent, methods and uses thereof” (BOEHRINGER INGELHEIM ANIMAL HEALTH USA INC., priority 2011, dated 2022):
# Experiments:
# Format in all cases: in vivo
# Ctenocephalides felis = assay: Spot-on efficacy at 1 mg/kg against Ctenocephalides felis fleas in cats protected from grooming (Example 8); conditions: cats with protective neck collar
# Protocol: In another study, the efficacy of four spot-on formulations comprising Cmpd. A dosed at 1 mg/kg body weight in different carrier vehicles against fleas in cats was studied. Five cats each were allocated to five Treatment Groups: Group 1—Untreated; Group 2—0.833% (w/v) Cmpd. A in dimethylsulfoxide (DMSO); Group 3—0.833% (w/v) Cmpd. A in DMI; Group 4—0.833% (w/v) Cmpd. A in Transcutol®; and Group 5—0.833% (w/v) Cmpd. A in DES. […] the corresponding spot-on formulation by application of the formulation directly on the skin in the midline of the neck, between the base of the skull and the shoulder blades in a single spot using a 1 mL syringe. Infestations with approximately 100 C. felis were conducted weekly on Days 7, 14, 21, 28 and 35. […]
# Ixodes ricinus = assay: Spot-on efficacy against induced Ixodes ricinus tick infestations in cats (Example 10); conditions: for prevention of the infestation of I. ricinus: 2.5% w/v in DMI
# Protocol: The efficacy of spot-on formulations comprising Cmpd. A were studied against induced infestations of Ixodes ricinus ticks in cats. Three treatment groups with six cats per group were randomly allocated: Group 1—Control, untreated; Group 2—Cmpd. A (2.5% w/v in DMI) at 0.1 ml/kg body weight (2.5 mg/kg); and Group 3—Cmpd. A (5.0% w/v in DMI) at 0.1 ml/kg body weight (5 mg/kg). Treatment was administered once on Day 0 and efficacy was assessed based on 48-hour tick (I. ricinus) counts following weekly experimental challenge from Day 7 on. […] In fact, the topical spot-on formulation offered substantial protection against I. ricinus ticks until the last day of assessment—Day 93. Due to limitations on tick availability 5 mg/kg was tested only up to Day 44 with 100% efficacy. The excellent long-lasting efficacy of the formulation of the invention against I. ricinus ticks in cats is very surprising and unexpected.
# [1] = system: Sarcoptes scabiei var. bovis; assay: Pour-on efficacy against Sarcoptes scabiei var. bovis (mange mites) in cattle (Example 17); conditions: for % Reduction: live mite counts in scrapings
# Protocol: The efficacy of two pour-on formulations of the invention comprising isoxazoline Compound A at doses of 2.5 mg/kg and 10 mg/kg were tested against natural and induced infestations with Sarcoptes scabiei var. bovis (mange mites) in cattle compared with an untreated control. Four healthy head of cattle weighing between 100 to 300 kg were used in each study group. Cattle in Group 1 were untreated (control). Cattle in Group 2 were treated on Day 0 with a pour-on formulation comprising Compound A at a concentration of 2.5% (w/v) in DES at a dose of 2.5 mg/kg; and cattle in Group 3 were treated on Day 0 with a pour-on formulation comprising Compound A at a concentration of 10% (w/v) in DES at a dose of 10 mg/kg. The formulation was applied by measuring the required amount of the solution into a marked disposable syringe and applying the material evenly along the mid-line of the back of each animal from the withers to the tail head.
# Live (motile) Sarcoptes scabiei var. bovis (mange mites) were counted on days 7, 14, 20, 27, 34, 41, 48 and 55 in scrapings collected from the edges of active lesions or, if lesions regressed during the study, from the area where active lesions were at the commencement of the study. Scrapings were made from six sites with an area of at least 3 cm×3 cm in size on each animal. Tables 18A and 18B below show the efficacy of the two pour-on formulations against Sarcoptes scabiei var. bovis over 56 days. […] The long lasting efficacy of the pour-on formulations of the invention against Sarcoptes scabiei var. bovis from one topical treatment is unexpected and surprising.
# Haematobia irritans = assay: Pour-on efficacy against Haematobia irritans (horn fly) in cattle (Example 14); conditions: Group 2: pour-on 10% in DES, 1 ml/10 kg
smiles,measurement,setting,value
"O=C(CNC(=O)c1ccc(C2=NOC(c3cc(Cl)cc(C(F)(F)F)c3)(C(F)(F)F)C2)c2ccccc12)NCC(F)(F)F (centres unmarked) [Compound A, 4-[5-[3-chloro-5-(trifluoromethyl)phenyl]-4,5-dihydro-5-(trifluoromethyl)-3-isoxazolyl]-N-[2-oxo-2-[(2,2,2-trifluoroethyl)amino]ethyl]-1-naphthalanecarboxamide]",% Reduction,"Ctenocephalides felis; Group 2: 0.833% in DMSO, Day 1",43.16%
same,% Reduction,"Ctenocephalides felis; Group 2: 0.833% in DMSO, Day 2",60.54%
same,% Reduction,"Ctenocephalides felis; Group 2: 0.833% in DMSO, Day 8",98.48%
same,% Reduction,"Ctenocephalides felis; Group 2: 0.833% in DMSO, Day 15",95.91%
same,% Reduction,"Ctenocephalides felis; Group 2: 0.833% in DMSO, Day 22",97.90%
same,% Reduction,"Ctenocephalides felis; Group 2: 0.833% in DMSO, Day 29",90.10%
same,% Reduction,"Ctenocephalides felis; Group 2: 0.833% in DMSO, Day 36",74.49%
same,% Reduction,"Ctenocephalides felis; Group 3: 0.833% in DMI, Day 1",37.90%
same,% Reduction,"Ctenocephalides felis; Group 3: 0.833% in DMI, Day 2",88.97%
same,% Reduction,"Ctenocephalides felis; Group 3: 0.833% in DMI, Day 8",99.62%
same,% Reduction,"Ctenocephalides felis; Group 3: 0.833% in DMI, Day 15",99.32%
same,% Reduction,"Ctenocephalides felis; Group 3: 0.833% in DMI, Day 22",98.80%
same,% Reduction,"Ctenocephalides felis; Group 3: 0.833% in DMI, Day 29",92.66%
same,% Reduction,"Ctenocephalides felis; Group 3: 0.833% in DMI, Day 36",79.54%
same,% Reduction,"Ctenocephalides felis; Group 4: 0.833% in Transcutol, Day 1",76.32%
same,% Reduction,"Ctenocephalides felis; Group 4: 0.833% in Transcutol, Day 2",83.12%
same,% Reduction,"Ctenocephalides felis; Group 4: 0.833% in Transcutol, Day 8",98.95%
same,% Reduction,"Ctenocephalides felis; Group 4: 0.833% in Transcutol, Day 15",99.01%
same,% Reduction,"Ctenocephalides felis; Group 4: 0.833% in Transcutol, Day 22",96.19%
same,% Reduction,"Ctenocephalides felis; Group 4: 0.833% in Transcutol, Day 29",95.41%
same,% Reduction,"Ctenocephalides felis; Group 4: 0.833% in Transcutol, Day 36",86.61%
same,% Reduction,"Ctenocephalides felis; Group 5: 0.833% in DES, Day 1",54.40%
same,% Reduction,"Ctenocephalides felis; Group 5: 0.833% in DES, Day 2",82.77%
same,% Reduction,"Ctenocephalides felis; Group 5: 0.833% in DES, Day 8",98.82%
same,% Reduction,"Ctenocephalides felis; Group 5: 0.833% in DES, Day 15",99.26%
same,% Reduction,"Ctenocephalides felis; Group 5: 0.833% in DES, Day 22",99.82%
same,% Reduction,"Ctenocephalides felis; Group 5: 0.833% in DES, Day 29",92.43%
same,% Reduction,"Ctenocephalides felis; Group 5: 0.833% in DES, Day 36",88.11%
same,efficacy against I. ricinus,"Ixodes ricinus; 5 mg/kg, up to Day 44",100%
same,prevention of the infestation of I. ricinus,"Ixodes ricinus; 2.5 mg/kg, until Day 56",completely prevented
same,prevention of the infestation of I. ricinus,"Ixodes ricinus; 2.5 mg/kg, until at least Day 77",> 90%
same,% Reduction Ticks,"Ixodes ricinus; Group 2: 2.5% w/v in DMI, 2.5 mg/kg, Day 2",23.71%
same,% Reduction Ticks,"Ixodes ricinus; Group 2: 2.5% w/v in DMI, 2.5 mg/kg, Day 9",100.00%
same,% Reduction Ticks,"Ixodes ricinus; Group 2: 2.5% w/v in DMI, 2.5 mg/kg, Day 23",99.60%
same,% Reduction Ticks,"Ixodes ricinus; Group 2: 2.5% w/v in DMI, 2.5 mg/kg, Day 30",100.00%
same,% Reduction Ticks,"Ixodes ricinus; Group 2: 2.5% w/v in DMI, 2.5 mg/kg, Day 37",99.58%
same,% Reduction Ticks,"Ixodes ricinus; Group 2: 2.5% w/v in DMI, 2.5 mg/kg, Day 44",100.00%
same,% Reduction Ticks,"Ixodes ricinus; Group 2: 2.5% w/v in DMI, 2.5 mg/kg, Day 51",100.00%
same,% Reduction Ticks,"Ixodes ricinus; Group 2: 2.5% w/v in DMI, 2.5 mg/kg, Day 58",100.00%
same,% Reduction Ticks,"Ixodes ricinus; Group 2: 2.5% w/v in DMI, 2.5 mg/kg, Day 65",99.02%
same,% Reduction Ticks,"Ixodes ricinus; Group 2: 2.5% w/v in DMI, 2.5 mg/kg, Day 72",99.21%
same,% Reduction Ticks,"Ixodes ricinus; Group 2: 2.5% w/v in DMI, 2.5 mg/kg, Day 79",95.54%
same,% Reduction Ticks,"Ixodes ricinus; Group 2: 2.5% w/v in DMI, 2.5 mg/kg, Day 86",84.92%
same,% Reduction Ticks,"Ixodes ricinus; Group 2: 2.5% w/v in DMI, 2.5 mg/kg, Day 93",76.65%
same,% Reduction Ticks,"Ixodes ricinus; Group 3: 5.0% w/v in DMI, 5 mg/kg, Day 2",70.27%
same,% Reduction Ticks,"Ixodes ricinus; Group 3: 5.0% w/v in DMI, 5 mg/kg, Day 9",100.00%
same,% Reduction Ticks,"Ixodes ricinus; Group 3: 5.0% w/v in DMI, 5 mg/kg, Day 23",100.00%
same,% Reduction Ticks,"Ixodes ricinus; Group 3: 5.0% w/v in DMI, 5 mg/kg, Day 30",100.00%
same,% Reduction Ticks,"Ixodes ricinus; Group 3: 5.0% w/v in DMI, 5 mg/kg, Day 37",100.00%
same,% Reduction Ticks,"Ixodes ricinus; Group 3: 5.0% w/v in DMI, 5 mg/kg, Day 44",100.00%
same,efficacy against Sarcoptes scabiei var. bovis,"[1]; 10% (w/v) formulation, day 14 through day 55",100%
same,efficacy against Sarcoptes scabiei var. bovis,"[1]; both pour-on formulations, starting on day 7 through at least day 56",higher than 95%
same,% Reduction,"[1]; Group 2: pour-on 2.5% (w/v) in DES, 2.5 mg/kg, Day 7",96.7%
same,% Reduction,"[1]; Group 2: pour-on 2.5% (w/v) in DES, 2.5 mg/kg, Day 14",98.2%
same,% Reduction,"[1]; Group 2: pour-on 2.5% (w/v) in DES, 2.5 mg/kg, Day 20",99.6%
same,% Reduction,"[1]; Group 2: pour-on 2.5% (w/v) in DES, 2.5 mg/kg, Day 27",100%
same,% Reduction,"[1]; Group 2: pour-on 2.5% (w/v) in DES, 2.5 mg/kg, Day 34",100%
same,% Reduction,"[1]; Group 2: pour-on 2.5% (w/v) in DES, 2.5 mg/kg, Day 41",100%
same,% Reduction,"[1]; Group 2: pour-on 2.5% (w/v) in DES, 2.5 mg/kg, Day 48",100%
same,% Reduction,"[1]; Group 2: pour-on 2.5% (w/v) in DES, 2.5 mg/kg, Day 55",100%
same,% Reduction,"[1]; second line of the table, ""Group 2"", pour-on in DES, Day 7",96.8%
same,% Reduction,"[1]; second line of the table, ""Group 2"", pour-on in DES, Day 14",100%
same,% Reduction,"[1]; second line of the table, ""Group 2"", pour-on in DES, Day 20",100%
same,% Reduction,"[1]; second line of the table, ""Group 2"", pour-on in DES, Day 27",100%
same,% Reduction,"[1]; second line of the table, ""Group 2"", pour-on in DES, Day 34",100%
same,% Reduction,"[1]; second line of the table, ""Group 2"", pour-on in DES, Day 41",100%
same,% Reduction,"[1]; second line of the table, ""Group 2"", pour-on in DES, Day 48",100%
same,% Reduction,"[1]; second line of the table, ""Group 2"", pour-on in DES, Day 55",100%
same,efficacy against Sarcoptes scabiei var. bovis,"[1]; lower concentration pour-on formulation (Group 2), day 27 through the end of the study",100%
same,% Reduction,Haematobia irritans; Day 35 (5 h),42.6%
same,% Reduction,Haematobia irritans; Day 36 (24 h),90.4%
